Assay results reported in patent US20170050966A1, “INHIBITING THE TRANSIENT RECEPTOR POTENTIAL A1 ION CHANNEL” (HYDRA BIOSCIENCES, INC., priority 2014, published 2017).
Converted amounts (≈) assume the structure as drawn. Read-outs that look alike come from different tables or passages of the source.

Assays:
[1] = CYP450 reaction phenotyping in human liver microsomes; type: in vitro ADME; settings: human liver microsomes with and without selective CYP450 inhibitors
Experimental: CYP450 reaction phenotyping of Compound 2 was conducted by incubating the test article with human liver microsomes in the presence and absence of selective CYP450 inhibitors.

[2] = PK comparison of capsule and suspension formulations; settings: monkey, in vivo, po, 250 mg, monkeys
Experimental: Another study was conducted to compare the PK parameters of capsule and suspension formulations of Compound 2. All monkeys were dosed with 250 mg Compound 2. Two groups were dosed with the capsule formulation: one fasted and one allowed food ad libitum. The animals that received the suspension formulation were dosed using a nasogastric tube and were fasted. […] When the PK profile of the capsule formulation was compared in both fasted and fed monkeys, the bioavailability of Compound 2 capsules was numerically greater in fasted monkeys.

[3] = target: T1, CYP1A2 (Homo sapiens, UniProt P05177); assay: CYP450 inhibition at 10 μM; type: biochemical; settings: probe Phenacetin, 1A2, substrate Phenacetin
T1 sequence (P05177 1-516): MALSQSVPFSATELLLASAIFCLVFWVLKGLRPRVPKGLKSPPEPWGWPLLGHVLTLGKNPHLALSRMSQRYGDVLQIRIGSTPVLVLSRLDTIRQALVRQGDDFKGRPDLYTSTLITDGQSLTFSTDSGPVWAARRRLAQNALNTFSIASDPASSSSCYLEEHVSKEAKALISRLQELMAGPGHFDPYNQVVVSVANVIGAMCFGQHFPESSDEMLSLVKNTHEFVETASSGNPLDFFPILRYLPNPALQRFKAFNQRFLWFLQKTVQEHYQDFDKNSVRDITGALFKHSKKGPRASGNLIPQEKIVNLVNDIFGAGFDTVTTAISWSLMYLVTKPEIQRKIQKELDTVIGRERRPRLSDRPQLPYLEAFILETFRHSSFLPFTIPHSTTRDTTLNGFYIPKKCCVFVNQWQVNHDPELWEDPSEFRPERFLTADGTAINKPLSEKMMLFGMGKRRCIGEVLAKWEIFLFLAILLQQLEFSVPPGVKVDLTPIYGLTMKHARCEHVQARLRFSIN

[4] = target: CYP2C19 (Homo sapiens, UniProt P33261); assay: in vitro; settings: probe Mephenytoin
[5] = Oral PK and bioavailability of micronized Compound 2 suspension; type: in vivo, dogs (beagles); settings: fasted dogs
Experimental: Additional studies were conducted with micronized Compound 2 in rat, dogs (beagles), and cynomolgus monkeys. Animals received a 10 mg/kg dose oral dose of compound formulated as a suspension in 0.5% methyl cellulose in water for injection at a target concentration of 1 mg/mL, and administered a dose volume of 10 mL/kg by oral gavage in rats or fasted dogs and via oral delivery in fasted cynomolgus monkeys. The % F for the rats in these studies was 85%, 36% for the dogs, and 19% for the monkeys. FIG. 11 depicts the pharmacokinetic profile for these species.
Three studies were conducted in dogs (beagles). In one study, three fasted dogs were administered 10 mg/kg of a suspension of micronized Compound 2 by gavage. Blood samples were collected from these dogs before dosing and at 0.25, 0.50, 1, 2, 4, 6, 8, 12, and 24 hours post-administration. Blood samples were analyzed to determine plasma levels of Compound 2 by LC/MS/MS. In subsequent studies, pharmacokinetic (PK) parameters were determined following a single oral dose of suspensions of micronized Compound 2 (recrystallized from ethanol) administered to fasted dogs at dose levels of 10, 100, 300, 600, or 1000 mg/kg. Blood samples were taken before dosing and at 0.5, 1, 2, 4, 8, 12, 24 and 48 hours post-dosing and analyzed to determine plasma levels of Compound 2.

[6] = Solubility of micronized Compound 2 in McIlvain's citrate-phosphate buffer; type: physicochemical; settings: aqueous buffer, thermodynamic from solid, citrate-phosphate buffer pH 2.2 to 8.64, 30 hours, read-out: Solubility of micronized formulation
Experimental: Solubility of a micronized formulation of Compound 2 was further evaluated using McIlvain's citrate-phosphate buffer recipes (0.2M Na2HPO4 and 0.1M citric acid) from pH 2.2 to 8.64. Samples were agitated for 30 hours and sampled, centrifuged, and analyzed by UPLC.

[7] = test system: human CYP450 enzymes; assay: CYP450 inhibition, seven isozymes overall; type: biochemical; settings: 10 μM, seven isozymes tested
[8] = test system: T2, human CYP450 enzymes (seven isozymes tested); assay: CYP450 inhibition, seven isozymes overall; type: biochemical; settings: human, read-out: calculated IC50 values
T2 construct: other: seven isozymes tested

[9] = target: CYP2D6 (Homo sapiens, UniProt P10635); assay: in vitro; settings: probe Dextromethorphan
[10] = Solubility in simulated gastrointestinal fluid (SGF); type: physicochemical; settings: simulated gastric fluid, thermodynamic from solid, HCl 0.1N at 25° C.
Experimental: Solubility was further assessed in simulated gastrointestinal fluid (SGF) (HCl 0.1N at 25° C.). Briefly, compound was agitated for 30 hours and sampled, centrifuged, and analyzed by UPLC.

[11] = Plasma protein binding, equilibrium dialysis; type: in vitro ADME; settings: pooled K2EDTA plasma, read-out: Mean % Bound ± SD (converted)
Experimental: With this method, free compound is separated from protein-bound compound by dialysis across a semi-permeable membrane.
The protein binding was tested at a concentration of 1 μM. Pooled human, cynomolgus monkey, dog, and rat K2EDTA plasma was thawed and centrifuged at 2000×g for 10 minutes at 4° C. to remove particulates; any lipid on the top of the supernatant was also removed by aspiration. The plasma was warmed to 37° C. for 10 minutes before use. Test compounds were spiked into 2 ml plasma in a polypropylene plate to a final concentration of 1 μM. Triplicate 400 μl aliquots of spiked plasma were transferred into the Thermo RED dialysis units and dialyzed against 600 μl of PBS buffer. […] After 6 hours dialysis, triplicate 50 μl aliquots were removed from the RED plate, matrix-matched with either PBS buffer or blank plasma, as appropriate, and quenched with 4 volumes of ACN containing an internal standard. The extracted samples were then centrifuged at 2000×g for 5 minutes at 4° C. The supernatant (50 μl) was removed and diluted with 100 μl water prior to LC/MS/MS bioanalysis.

Sequence of CYP2C19 (P33261 whole entry): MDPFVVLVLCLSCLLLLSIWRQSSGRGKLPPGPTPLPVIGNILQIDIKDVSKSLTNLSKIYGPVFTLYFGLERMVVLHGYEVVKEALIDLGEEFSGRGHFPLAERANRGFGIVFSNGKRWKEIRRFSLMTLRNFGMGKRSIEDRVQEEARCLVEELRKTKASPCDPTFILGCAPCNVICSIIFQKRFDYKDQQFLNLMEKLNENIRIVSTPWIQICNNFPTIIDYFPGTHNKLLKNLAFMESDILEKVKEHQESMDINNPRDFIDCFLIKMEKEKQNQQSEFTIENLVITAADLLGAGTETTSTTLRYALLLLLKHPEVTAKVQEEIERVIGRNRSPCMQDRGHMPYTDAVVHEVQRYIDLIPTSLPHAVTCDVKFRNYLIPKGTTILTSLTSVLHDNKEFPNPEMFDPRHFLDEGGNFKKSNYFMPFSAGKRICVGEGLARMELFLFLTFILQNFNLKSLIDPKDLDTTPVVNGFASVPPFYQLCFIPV
Sequence of CYP2D6 (P10635 whole entry): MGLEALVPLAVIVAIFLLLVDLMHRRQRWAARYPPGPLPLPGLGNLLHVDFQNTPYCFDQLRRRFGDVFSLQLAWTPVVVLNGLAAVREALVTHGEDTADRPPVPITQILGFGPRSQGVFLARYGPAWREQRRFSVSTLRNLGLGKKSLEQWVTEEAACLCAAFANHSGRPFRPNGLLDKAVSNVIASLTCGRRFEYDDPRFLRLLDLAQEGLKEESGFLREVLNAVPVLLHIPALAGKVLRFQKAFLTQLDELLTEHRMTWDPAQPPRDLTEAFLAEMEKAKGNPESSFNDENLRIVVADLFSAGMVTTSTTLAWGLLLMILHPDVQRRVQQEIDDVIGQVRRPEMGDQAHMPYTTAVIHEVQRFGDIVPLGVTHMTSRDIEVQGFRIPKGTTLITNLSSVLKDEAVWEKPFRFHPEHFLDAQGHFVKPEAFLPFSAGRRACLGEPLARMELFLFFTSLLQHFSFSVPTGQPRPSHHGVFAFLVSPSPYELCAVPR

SMILES: C[C@@H](C(=O)Nc1ccnc(-c2cnc(N3CCC[C@H]3C(F)(F)F)nc2)n1)n1cnc2c1c(=O)n(C)c(=O)n2C [Compound 2, (S)-2-(1,3-dimethyl-2,6-dioxo-2,3-dihydro-1H-purin-7(6H)-yl)-N-(2′-((S)-2-(trifluoromethyl)pyrrolidin-1-yl)-[2,5′-bipyrimidin]-4-yl)propanamide]
- CYP450 isozymes involved in in vitro metabolism [1]: involved mainly the CYP3A4 isozymes
- bioavailability ([2]; Capsule (fasted)): 13%
- bioavailability ([2]; Capsule (fed)): 10%
- bioavailability ([2]; Suspension (fasted)): 7.8%
- inhibition at 10 µM [3]: 9%
- inhibition at 10 µM [4]: 37.1%
- bioavailability ([5]; beagle, dog, plasma, 10 mg/kg oral, micronized suspension): 36%
- Exposures on an AUC and Cmax basis versus dose ([5]; single oral dose 10 to 1000 mg/kg): increased with doses up to 600 mg/kg
- solubility at 30 h [6]: 200 to 1300 µg/mL (≈ 367 to 2390 µM)
- maximum block of human CYP450 enzymes [7]: up to 37%
- IC50 [8]: > 10 µM
- inhibition at 10 µM [9]: 9.5%
- solubility at 30 h [10]: 1050 µg/mL (≈ 1930 µM)
- fraction unbound at 6 h, 1 μM ([11]; Human plasma): 0.015
- fraction unbound at 6 h, 1 μM ([11]; Sprague dawley rat plasma): 0.047
